Data taken from ChEMBL document CHEMBL5576087 (Bioorg Med Chem Lett, 2024).
Calls of active or inactive are those of the source. The rule behind the calls is not given here.

Experiments:
HUVEC [1] = experiment: Antiangiogenesis activity in HUVEC cells assessed as inhibition of tube formation at 10 to 100 uM measured after 18 hrs; assay type: functional, cell-based; details: Homo sapiens, dose 10-100 µM
[2] = Metabolic stability in human liver microsomes assessed as half life measured upto 60 mins in presence of NADPH by LC/MS analysis; assay type: ADME, Microsome
HuH-6 = experiment: Effect on SALL4 protein level in human HuH-6 cells at 0.1 uM measured after 16 hrs by Western blot analysis; assay type: functional, cell-based
MM1.S [3] = experiment: Effect on CK1a protein level in human MM1.S cells at 0.1 uM measured after 16 hrs by Western blot analysis; assay type: functional, cell-based
Protein cereblon = Protein cereblon (Homo sapiens, UniProt Q96SW2); experiment: Binding affinity to human CRBN TBD (319 to 425 residues) assessed as inhibition constant by MST assay
MM1.S [4] = experiment: Antiproliferative activity against human MM1.S cells at 10 uM measured after 72 hrs by CCK-8 method; assay type: functional, cell-based
MM1.S [5] = experiment: Effect on IKZF3 protein level in human MM1.S cells at 0.1 uM measured after 16 hrs by Western blot analysis; assay type: functional, cell-based
HUVEC [6] = experiment: Antiproliferative activity against human HUVEC cells at 10 uM measured after 48 hrs by CCK-8 method; assay type: toxicity, cell-based
MM1.S [7] = experiment: Effect on GSPT1 protein level in human MM1.S cells at 0.1 uM measured after 16 hrs by Western blot analysis; assay type: functional, cell-based
HUVEC [8] = experiment: Antiproliferative activity against human HUVEC cells at 10 uM measured after 48 hrs by CCK-8 method relative to control; assay type: toxicity, cell-based
HUVEC [9] = experiment: Antiangiogenesis activity in HUVEC cells assessed as inhibition of tube formation measured after 18 hrs; assay type: functional, cell-based; details: Homo sapiens
HUVEC [10] = experiment: Antiproliferative activity against human HUVEC cells at 100 uM measured after 48 hrs by CCK-8 method; assay type: toxicity, cell-based
MM1.S [11] = experiment: Antiproliferative activity against human MM1.S cells at 100 uM measured after 72 hrs by CCK-8 method; assay type: functional, cell-based
HUVEC [12] = experiment: Inhibition of tube formation in HUVEC cells at 100 uM measured after 18 hrs relative to control; assay type: functional; details: Homo sapiens

CC(C)N1C(=O)NC(=O)C(C)(N2C(=O)c3ccccc3C2=O)C1=O (centres undefined)
Activity (HUVEC [1]): inactive | half-life [2]: 19.3 min | Activity (HuH-6): inactive | Activity (MM1.S [3]): inactive | Ki (Protein cereblon): Not Active | Activity (MM1.S [4]): inactive | Activity (MM1.S [5]): inactive | Activity (HUVEC [6]): Non-Toxic | Activity (MM1.S [7]): inactive

CC(C)N1C(=O)NC(=O)C(C)(N2C(=O)c3c(F)c(F)c(F)c(F)c3C2=O)C1=O (centres undefined)
Activity (HUVEC [8]): > 95% | Activity (HuH-6): inactive | Activity (MM1.S [3]): inactive | IC50 (HUVEC [9]): 2.8 µM | Ki (Protein cereblon): Not Active | Activity (MM1.S [5]): inactive | Activity (MM1.S [7]): inactive

O=C1CCC(N2C(=O)c3c(F)c(F)c(F)c(F)c3C2=O)C(=O)N1 (centres undefined)
Activity (HuH-6): inactive | Activity (MM1.S [3]): inactive | Activity (MM1.S [5]): inactive | Activity (MM1.S [7]): inactive

O=C1CCC(N2C(=O)c3ccccc3C2=O)C(=O)N1 (centres undefined) [THALIDOMIDE]
Activity (HUVEC [10]): Non-Toxic | Activity (HUVEC [1]): inactive | Activity (HuH-6): inactive | Activity (MM1.S [3]): inactive | Activity (MM1.S [5]): inactive | Activity (MM1.S [11]): inactive | Activity (MM1.S [7]): inactive

CC(C)N1C(=O)NC(=O)C(C)(NC(=O)c2ccccc2)C1=O (centres undefined)
Activity (HUVEC [1]): inactive | Activity (HuH-6): inactive | Activity (MM1.S [3]): inactive | Ki (Protein cereblon): Not Active | Activity (MM1.S [4]): inactive | Activity (MM1.S [5]): inactive | Activity (HUVEC [6]): Non-Toxic | Activity (MM1.S [7]): inactive

O=C1CCC(NC(=O)c2cc(F)c(F)cc2F)C(=O)N1 (centres undefined)
inhibition (HUVEC [12]): inactive

O=C1CCC(NC(=O)c2ccccc2)C(=O)N1 (centres undefined)
Activity (HUVEC [1]): inactive | Activity (HuH-6): inactive | Activity (MM1.S [3]): inactive | Activity (MM1.S [4]): inactive | Activity (MM1.S [5]): inactive | Activity (HUVEC [6]): Non-Toxic | Activity (MM1.S [7]): inactive

O=C1CCC(NC(=O)c2cc(F)c(F)c(F)c2F)C(=O)N1 (centres undefined)
Activity (HUVEC [1]): inactive | Activity (HuH-6): inactive | Activity (MM1.S [3]): inactive | Activity (MM1.S [4]): inactive | Activity (MM1.S [5]): inactive | Activity (HUVEC [6]): Non-Toxic | Activity (MM1.S [7]): inactive

CC(C)N1C(=O)NC(=O)C(C)(NC(=O)c2cc(F)c(F)c(F)c2F)C1=O (centres undefined)
Activity (HUVEC [1]): inactive | Activity (HuH-6): inactive | Activity (MM1.S [3]): inactive | Ki (Protein cereblon): Not Active | Activity (MM1.S [4]): inactive | Activity (MM1.S [5]): inactive | Activity (HUVEC [6]): Non-Toxic | Activity (MM1.S [7]): inactive

CCOCCNc1cccc2c1C(=O)N(C1CCC(=O)NC1=O)C2=O (centres undefined)
inhibition at 100 µM (HUVEC [12]): 50%
